# Experimental data reported in PMC11284800 (Journal of Medicinal Chemistry, 2024).
# Values joined by “and” are separate entries in the source; they are usually repeats but may differ in a detail not shown here. Identical values can stand only once. Like-named read-outs stand apart in the source and are kept apart here.
# Columns and labels:
# rCB1R = conditions: cited from earlier work
# mCB1R = conditions: at 1 μM; cited from earlier work
# CB2R-HEK293TR = biological target: T1, CB2R-HEK293TR (Homo sapiens, UniProt P34972); experiment: Live cell confocal imaging, CB2R-HEK293TR cells; type: cell-based; conditions: 250 nM probe, induced CB2R expression
# T1 construct: expressed in transfected cells; host or cells: HEK293TR (tetracycline-inducible)
# T1 sequence (P34972 whole entry): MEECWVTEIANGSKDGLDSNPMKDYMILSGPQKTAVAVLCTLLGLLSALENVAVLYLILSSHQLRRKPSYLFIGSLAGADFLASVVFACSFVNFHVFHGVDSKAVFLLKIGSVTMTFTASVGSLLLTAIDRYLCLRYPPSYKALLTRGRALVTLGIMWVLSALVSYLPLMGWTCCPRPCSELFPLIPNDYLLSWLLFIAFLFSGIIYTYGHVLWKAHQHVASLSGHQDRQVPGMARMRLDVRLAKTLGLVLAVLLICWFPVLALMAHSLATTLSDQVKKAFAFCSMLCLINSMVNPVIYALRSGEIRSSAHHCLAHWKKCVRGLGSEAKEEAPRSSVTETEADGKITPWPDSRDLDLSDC
# Description: (§1) Cells were plated onto a 384-well microplate (PhenoPlate, Revvity), at a density of 3500 cells/well (40 μL) with 1 μg/mL tetracycline for receptor-inducible expression and incubated for 48 h. The cell nuclei were stained using 0.9 μM Hoechst 33342 for 1 h incubation. After replacement of medium to serum-free conditions without Phenol red (20 μL), fluorescent probes were added (10 μL) and tested at 250 nM concentration. In case of blocking experiments, nuclei-stained cells were incubated with inhibitors (5 μM) for 30 min under serum-free conditions before probe administration. Confocal live cell imaging was performed using the Opera Phenix High Content Screening System (Revvity) at 22 °C. The probe fluorescence was monitored by kinetic measurements of 10 min with a break for probe administration. The fluorescence of one image per sample was captured using a water immersion objective (63×, NA 1.15, field of view 0.21 × 0.21 mm) at each time point. Probe detection was realized using the appropriate laser for excitation and filter for fluorescence emission. Image acquisition parameters, including laser power, offset, and gain settings, were kept constant.
# [1] = test system: human CB1R on live SNAP-CB1R-HEK293TR cells; type: cell-based
# Description: (§2) Human CB1R HEK293TR cells (same transfected cell line as for TR-FRET binding assay was used, see above) were maintained in a humidified environment at 37 °C and 5% CO2 in DMEM with 10% FBS containing blasticidin (5 μg/mL; Invitrogen) and (Zeocin; 20 μg/mL; Invitrogen).
# as §1, with “Cells were plated onto a 384-well microplate (PhenoPlate, Revvity), at a density of 3500 cells/well (40 μL) with 1 μg/mL tetracycline for receptor-inducible expression and incubated for 48 h.” left out
# [2] = biological target: T2, human CB1R on live SNAP-CB1R-HEK293TR cells (Homo sapiens, UniProt P21554); type: cell-based; conditions: 250 nM probe
# T2 construct: expressed in transfected cells; host or cells: HEK293TR (tetracycline-inducible)
# T2 sequence (P21554 91-472): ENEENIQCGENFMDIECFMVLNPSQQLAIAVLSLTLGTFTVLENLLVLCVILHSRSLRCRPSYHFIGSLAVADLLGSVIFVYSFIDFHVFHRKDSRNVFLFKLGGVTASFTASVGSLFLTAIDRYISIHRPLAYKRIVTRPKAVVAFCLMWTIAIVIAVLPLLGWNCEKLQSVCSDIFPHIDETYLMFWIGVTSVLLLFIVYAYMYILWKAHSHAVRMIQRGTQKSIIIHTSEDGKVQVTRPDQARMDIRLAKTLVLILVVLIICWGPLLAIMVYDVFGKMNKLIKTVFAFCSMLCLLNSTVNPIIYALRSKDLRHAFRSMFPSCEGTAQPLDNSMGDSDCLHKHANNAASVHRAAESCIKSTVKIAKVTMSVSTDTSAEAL
# Description: as §2
# as §1, with “Cells were plated onto a 384-well microplate (PhenoPlate, Revvity), at a density of 3500 cells/well (40 μL) with 1 μg/mL tetracycline for receptor-inducible expression and incubated for 48 h.” left out
# hCB1R [3] = biological target: T3, hCB1R (Homo sapiens, UniProt P21554); experiment: HTRF cAMP assay, agonist / inverse agonist mode; type: cell-based; set-up: expressed in transfected cells; host or cells: CHO
# Target sequence in this assay (P21554 whole entry): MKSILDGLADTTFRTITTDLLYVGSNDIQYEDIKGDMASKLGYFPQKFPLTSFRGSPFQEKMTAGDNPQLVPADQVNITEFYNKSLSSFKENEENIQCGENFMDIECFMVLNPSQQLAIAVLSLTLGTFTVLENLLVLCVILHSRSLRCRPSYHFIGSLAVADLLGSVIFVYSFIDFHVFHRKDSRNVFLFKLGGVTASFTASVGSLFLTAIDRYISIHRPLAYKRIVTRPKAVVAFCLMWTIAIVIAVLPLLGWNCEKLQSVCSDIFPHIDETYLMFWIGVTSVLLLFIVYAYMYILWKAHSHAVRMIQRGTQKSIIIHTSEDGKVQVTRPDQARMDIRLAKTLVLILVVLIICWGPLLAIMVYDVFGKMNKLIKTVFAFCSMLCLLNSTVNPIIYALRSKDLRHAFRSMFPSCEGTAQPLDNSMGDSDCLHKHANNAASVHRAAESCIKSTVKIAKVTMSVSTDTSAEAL
# [4] = Photophysical characterization in PBS; type: physicochemical; conditions: PBS pH 7.4
# human CB2R = biological target: T4, human CB2R (Homo sapiens, UniProt P34972); experiment: [3H]CP55,940 displacement assay on CHO membranes, CB2R; type: binding
# T4 construct: host or cells: CHO-K1 (CHOK1hCB2_bgal)
# T4 sequence (P34972 whole entry): as the sequence (P34972 whole entry) above
# hCB1R [5] = biological target: T3, hCB1R; experiment: HTRF cAMP assay, antagonist mode (forskolin with CP55,940)
# Target sequence in this assay (P21554 whole entry): as the sequence (P21554 whole entry) above
# Description: The homogeneous time-resolved fluorescence (HTRF) cAMP assay was conducted following the manufacturer’s protocol for the cAMP-Gs Dynamic kit. […] After 15 min, reactions were stopped by the 1× cAMP-d2 conjugate in lysis buffer (5 μL/well), followed by 1× anti-cAMP cryptate conjugate in lysis buffer (5 μL/well). Following a 1 h incubation at room temperature, the plates were read in a Revvity Envision reader for time-resolved fluorescence resonance energy transfer detection at 620 and 665 nm. The HTRF ratio versus compound concentrations was plotted using Prism 8.1 (GraphPad). HTRF ratio = (signal 665 nm/signal 620 nm) × 10^4.
# hCB1R [6] = biological target: T3, hCB1R; experiment: [3H]CP55,940 displacement assay on CHO membranes, CB1R; type: binding; set-up: host or cells: CHO-K1 (CHOK1hCB1_bgal)
# Target sequence in this assay (P21554 whole entry): as above
# hCB1R [7] = biological target: T3, hCB1R; experiment: TR-FRET fluorescent ligand binding (saturation and kinetics), HEK293TR-hCB1R cell membranes; set-up: a truncated CB1R variant, CB1R91-472 was used to facilitate the FRET; expressed in transfected cells; host or cells: HEK293TR (tetracycline-inducible, pcDNA4/TO)
# Target sequence in this assay (P21554 91-472): as the sequence (P21554 91-472) above
# hCB2R = biological target: hCB2R; set-up: method as in PMID 29314831; conditions: cited from earlier work
# hCB1R [8] = conditions: cited from earlier work
# [9] = fluorescent probe, direct association kinetics
smiles,measurement,setting,value
Cc1c(C(=O)NN2CCCCC2)nn(-c2ccc(Cl)cc2Cl)c1-c1ccc(-c2ccc(CCCNC(=O)c3ccc4c(c3)C(=O)OC43c4ccc(N(C)C)cc4Oc4cc(N(C)C)ccc43)cc2)cc1 [Compound T1117],Kd,rCB1R,0.46 ± 0.08 µM
same,Ki(mCB1R): displacement,mCB1R,10%
CCC(CC)(NC(=O)c1cc(-c2cc(C(F)(F)F)ccc2C(F)(F)F)n(C[C@H]2CCCO2)c1C)C(=O)NCCOCCOCCNC(=O)c1ccc2c(c1)C(=O)OC21c2ccc(N(C)C)cc2Oc2cc(N(C)C)ccc21 [Compound 29],Staining of CB2R-HEK293TR cells,CB2R-HEK293TR,no staining
same,Staining of uninduced CB1R-HEK293TR cells,"[1]; 250 nM probe, no CB1R expression",no staining
same,Passive permeation of outer cell membrane,[1]; concluded from intracellular staining in live CB1R-HEK293TR cells,able to passively permeate the outer cell membrane
same,Staining of CB1R on induced CB1R-HEK293TR cells,[2]; confocal microscopy,selectively stain and visualize CB1R
same,Time to staining of CB1R,[2]; induced CB1R-HEK293TR cells,≤ 10 min
same,Emax,hCB1R [3],-64%
same,Functional activity at CB1R (in words),hCB1R [3]; CB1R cAMP HTRF assay,inverse agonists
same,Functional activity CB1R (cAMP assay) pEC50 or pIC50 ± SEM,"hCB1R [3]; inverse agonists, n.a. is no activity",6.99 ± 0.09
same,IC50,"hCB1R [3]; read-out: Functional activity (cAMP assay) IC50, cells stably expressing hCB1R, HTRF cAMP, inverse agonists, n.a. denotes no activity",0.102 µM
same,Abs (absorbance maximum),[4],555 nm
same,Em (emission maximum),[4],585 nm
same,QY (quantum yield),[4],36.60% and 37%
same,hCB2R % displacement at 10 µM,"human CB2R; [3H]CP55,940 displacement at 10 µM compound, ± SEM",18 ± 5%
same,Ki,"human CB2R; read-out: hCB2R Ki, [3H]CP55,940 displacement, CHO membranes stably expressing human CB2R, means of three experiments",> 10 µM
same,Antagonist activity (cAMP assay) pEC50 or pIC50 ± SEM,"hCB1R [5]; antagonist mode, n.a. is no activity",5.7 ± 0.16
same,Emax,hCB1R [5]; read-out: Variation of Emax,-88%
same,hCB1R pKi ± SEM,"hCB1R [6]; [3H]CP55,940 displacement, CHO membranes",5.68 ± 0.29
same,Ki(CB2R)/Ki(CB1R),hCB1R [6]; radioligand binding Ki ratio,> 4.8
same,Ki,"hCB1R [6]; read-out: hCB1R Ki, [3H]CP55,940 displacement, CHO membranes stably expressing human CB1R, means of three experiments",2.08 µM
same,koff,hCB1R [7]; [9],0.00433 s⁻¹
same,kon,hCB1R [7]; [9],13500 M⁻¹ s⁻¹
same,residence time,"hCB1R [7]; fluorescent probe, read-out: RT (residence time)",3.85 min
same,Kd,"hCB1R [7]; read-out: kinetic KD, fluorescent probe",0.365 µM
same,Kd,"hCB1R [7]; read-out: saturation binding KD, TR-FRET saturation binding after 60 min",0.335 µM
CCCCCCC(C)(C)c1cc(O)c2c(c1)OC(C)(C)[C@@H]1CC=C(CNC(=O)CCCCCNC(=O)c3ccc(-c4c5ccc(=N)c(S(=O)(=O)O)c-5oc5c(S(=O)(=O)O)c(N)ccc45)c(C(=O)O)c3)C[C@@H]21 [HU210-Alexa488],Ki,hCB2R,0.8 ± 0.2 µM
same,Ki,hCB1R [8],0.027 ± 0.004 µM
